Measured values reported in patent publication US20240358684A1, “METHOD FOR ENHANCING INNATE IMMUNE RESPONSE” (Kyoto University, priority 2021, published 2024).
Entries after “also recorded” stand apart in the source; their conditions may differ.

Legend:
[1] = biological target: T1, CLK2 (Homo sapiens, UniProt P49760); experiment: Inhibition confirmation test for CLK (off-chip mobility shift assay); assay type: biochemical; settings: at 1 μM; read-out: CLK2 inhibitory activity
T1 construct: Enzyme activity was measured with off-chip mobility shift assay using purified CLK protein
T1 sequence (P49760 whole entry): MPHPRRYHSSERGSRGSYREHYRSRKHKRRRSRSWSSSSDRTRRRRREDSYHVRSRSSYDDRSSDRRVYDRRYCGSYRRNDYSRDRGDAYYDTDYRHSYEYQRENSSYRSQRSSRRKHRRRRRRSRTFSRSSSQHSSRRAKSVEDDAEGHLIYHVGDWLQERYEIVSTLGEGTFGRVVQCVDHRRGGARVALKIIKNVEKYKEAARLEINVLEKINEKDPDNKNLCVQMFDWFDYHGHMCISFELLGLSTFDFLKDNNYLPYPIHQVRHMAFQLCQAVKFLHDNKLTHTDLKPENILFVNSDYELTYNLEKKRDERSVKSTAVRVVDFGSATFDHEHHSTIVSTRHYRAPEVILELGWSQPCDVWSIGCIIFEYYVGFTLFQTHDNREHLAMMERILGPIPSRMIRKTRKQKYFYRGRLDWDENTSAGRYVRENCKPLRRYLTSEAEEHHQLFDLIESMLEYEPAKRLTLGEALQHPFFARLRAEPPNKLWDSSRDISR
Protocol: (§1) Enzyme activity was measured with off-chip mobility shift assay using purified CLK protein. DYRKtide-F peptide (1 μM) was used as a substrate, and a composition of a reaction solution used was as follows (20 mM HEPES (pH7.5), 0.01% Triton X-100, 1 mM DT7, 1% DMSO, and ATP (10 μM for CLK1, 150 μM for CLK2, and 75 μM for CLK3)). The enzyme reaction was performed at room temperature for 1 hour, and the reaction was terminated by adding QuickScout Screening Assist MSA (Carna Biosciences, Inc.). A substrate peptide and a phosphorylated peptide in the enzyme reaction solution were separated and quantified using the LabChip system (Perkin-Elmer, Waltham, MA, USA), and inhibition of CLK was evaluated by calculating a product ratio using the following formula, the substrate peptide peak height (S), and the phosphorylated peptide peak height (P).
(§2) (P/(P+S)) • P: product-derived peak • S: substrate-derived peak

[2] = biological target: T2, CLK3 (Homo sapiens, UniProt P49761); experiment: as above; assay type: biochemical; settings: at 1 μM; read-out: CLK3 inhibitory activity
T2 construct: Enzyme activity was measured with off-chip mobility shift assay using purified CLK protein
T2 sequence (P49761 whole entry): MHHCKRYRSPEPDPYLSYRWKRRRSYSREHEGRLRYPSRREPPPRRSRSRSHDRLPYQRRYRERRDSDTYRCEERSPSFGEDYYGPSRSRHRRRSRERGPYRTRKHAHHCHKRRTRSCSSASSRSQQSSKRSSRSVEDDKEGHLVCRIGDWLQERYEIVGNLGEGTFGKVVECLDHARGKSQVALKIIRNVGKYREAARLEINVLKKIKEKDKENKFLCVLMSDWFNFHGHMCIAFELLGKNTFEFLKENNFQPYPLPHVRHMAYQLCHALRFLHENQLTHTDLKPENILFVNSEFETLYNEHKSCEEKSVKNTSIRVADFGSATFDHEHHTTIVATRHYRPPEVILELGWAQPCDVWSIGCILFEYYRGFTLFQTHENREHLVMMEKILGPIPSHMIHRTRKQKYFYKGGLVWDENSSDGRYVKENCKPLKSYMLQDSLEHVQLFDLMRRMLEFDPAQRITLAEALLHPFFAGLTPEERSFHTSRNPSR
Protocol: as §1, §2

[3] = test system: OAS1 rs10774671 A-allele splicing; experiment: RT-PCR for OAS1 alternative splicing profile in Calu-3 (A/A allele) cells; assay type: cell-based, human; settings: for yield of the p44a splice form (RT-PCR) / yield of the p44a splice form compared with other compound treatment: Calu-3, 10 μM, 18 hours (Example 2)
[4] = biological target: T3, CLK1 (Homo sapiens, UniProt P49759); experiment: Inhibition confirmation test for CLK (off-chip mobility shift assay); assay type: biochemical; settings: at 1 μM; read-out: CLK1 inhibitory activity
T3 construct: Enzyme activity was measured with off-chip mobility shift assay using purified CLK protein
T3 sequence (P49759 whole entry): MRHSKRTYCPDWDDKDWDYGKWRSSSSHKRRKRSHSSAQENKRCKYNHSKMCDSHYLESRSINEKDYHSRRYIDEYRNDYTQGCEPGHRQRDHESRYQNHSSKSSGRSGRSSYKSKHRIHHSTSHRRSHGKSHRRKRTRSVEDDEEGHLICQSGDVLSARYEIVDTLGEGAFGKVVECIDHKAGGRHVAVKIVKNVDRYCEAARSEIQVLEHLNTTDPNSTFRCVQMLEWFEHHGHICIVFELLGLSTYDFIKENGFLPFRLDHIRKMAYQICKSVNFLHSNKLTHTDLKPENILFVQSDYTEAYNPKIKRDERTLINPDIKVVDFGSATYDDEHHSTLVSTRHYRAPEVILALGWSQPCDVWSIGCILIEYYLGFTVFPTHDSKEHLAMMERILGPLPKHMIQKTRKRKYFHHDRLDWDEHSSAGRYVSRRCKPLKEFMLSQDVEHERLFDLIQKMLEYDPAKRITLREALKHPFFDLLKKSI
Protocol: as §1, with “DYRKtide-F peptide (1 μM) was used as a substrate, and a composition of a reaction solution used was as follows (20 mM HEPES (pH7.5), 0.01% Triton X-100, 1 mM DT7, 1% DMSO, and ATP (10 μM for CLK1, 150 μM for CLK2, and 75 μM for CLK3)).” left out
as §2

Compound	inhibition at 1 µM [1] [%]	inhibition at 1 µM [2] [%]	yield of the p44a splice form (RT-PCR) [3]	yield of the p44a splice form compared with other compound treatment [3]	inhibition at 1 µM [4] [%]	yield of p44a splice form (RT-PCR) ([3]; Calu-3, 10 μM or 30 μM, 18 hours (Example 3))
c1cncc(-c2ccc3[nH]ncc3c2)c1 [compound 2, 5-pyridin-3-yl-1H-indazole]	90.5	21.6	increased the yield of the p44a splice form	higher than that in the compound 1 treatment	98.4	
CCN1/C(=C/C(C)=O)Sc2ccc3occc3c21 [compound 3, 1-(1-ethylfuro[3,2-e][1,3]benzothiazol-2-ylidene)propan-2-one]	96.5	32.9	increased the yield of the p44a splice form	higher than that in the compound 1 treatment; also recorded: higher than that in the compound 2 treatment	102	
CCN1/C(=C/C(C)=O)Sc2ccc(OC)cc21 [compound 4, 1-(3-ethyl-5-methoxy-1,3-benzothiazol-2-ylidene)propan-2-one, reference compound]						increased the yield of p44a splice form
